≈ marks a conversion by molar mass, not a printed value. Where “and” joins values, the source holds several entries; their conditions need not be identical. Equal values may be shown once. Bounds are passed on as bounds.

Test systems include Bacillus pumilus; Bacillus cereus; Pseudomonas aeruginosa; Shigella dysenteriae; Lactococcus lactis; Candida albicans; Escherichia coli AS1.349; Candida albicans C627; Staphylococcus aureus; Escherichia coli B; Candida krusei CCM 8271; Bacillus subtilis 168; Bacillus cereus AS1.126.
Common to all, as to experiment: ≥ marks a high value that may be exact or a test limit, other limits are often not marked, values filed in µg/mL are converted to µM
The subject of test [1] is Acinetobacter calcoaceticus.
For test [2], the system named is Candida albicans ATCC 2002.
In test [3] the test system is Staphylococcus aureus ATCC 2592.
For test [4], the system named is Escherichia coli ATCC 25922.
For test [5], the system named is Staphylococcus aureus AS1.72.
Test [6] concerns Staphylococcus aureus ATCC 29213.
The test system of test [7] is Salmonella enterica subsp. enterica serovar Enteritidis.
Test [8] deals with Pseudomonas aeruginosa CMCCB 10104.
Test [9] has as its system Staphylococcus aureus ATCC 25923.
Test [10] has as its system Pseudomonas aeruginosa H103.
In test [11] the test system is Staphylococcus aureus C623.
Test [12] concerns Enterococcus faecium mic80.
Test [13] has as its system Pseudomonas aeruginosa LES400.
The test system of test [14] is Pseudomonas aeruginosa 213.
For test [15], the system named is Escherichia coli ESBL 63103.
Test [16] has as its system Candida glabrata CCM 8270.
Test [17] concerns Candida parapsilosis CCM 8260.
For test [18], the system named is Candida albicans F7-39/IDE99.
The subject of test [19] is Staphylococcus epidermidis PCM 521.
In test [20] the test system is Staphylococcus aureus PCM 2054.
The test system of test [21] is Escherichia coli PCM 2057.
Test [22] concerns Staphylococcus aureus PMC 1650.
Test [23] relates to Staphylococcus epidermidis PCM 2118.
The subject of test [24] is Lactococcus lactis AS1.1690.
Test [25] has as its system Enterococcus faecalis CGMCC 1.595.
The test system of test [26] is Enterococcus faecium CGMCC 1.2334.
For test [27], the system named is Pseudomonas aeruginosa CGMCC 1.860.

As for `CC[C@H](C)[C@H](NC(=O)[C@@H]1CCCN1C(=O)[C@H](Cc1ccccc1)NC(=O)[C@@H](N)Cc1ccccc1)C(=O)N[C@H](C(=O)NCC(=O)N[C@@H](CCCCN)C(=O)N[C@@H](CC(C)C)C(=O)N[C@@H](CC(C)C)C(=O)N[C@@H](CO)C(=O)NCC(=O)N[C@@H](CC(C)C)C(=O)N[C@@H](CO)C(=O)NCC(=O)N[C@@H](CC(C)C)C(=O)N[C@@H](CC(C)C)C(N)=O)C(C)C` [FFPIVGKLLSGLSGLL], the MIC is 18.1 µM (≈ 30 µg/mL) in test [1]; 1.51 µM (≈ 2.5 µg/mL) in test [2]; 3.01 µM (≈ 5 µg/mL) in the test with Bacillus pumilus; 18.1 µM (≈ 30 µg/mL) in the test with Bacillus cereus; 3.01 µM (≈ 5 µg/mL) in the test with Pseudomonas aeruginosa; 3.01 µM (≈ 5 µg/mL) with Shigella dysenteriae. Besides, the MIC in test [3] and in test [4] was 1.51 µM (≈ 2.5 µg/mL) throughout.

`CC(C)C[C@H](NC(=O)[C@H](CC(C)C)NC(=O)CNC(=O)[C@H](Cc1ccccc1)NC(=O)[C@H](CCCN=C(N)N)NC(=O)[C@H](CC(C)C)NC(=O)[C@H](CCCCN)NC(=O)[C@H](CCCCN)NC(=O)[C@H](CC(C)C)NC(=O)[C@@H]1CCCN1C(=O)[C@H](CC(C)C)NC(=O)[C@@H](N)Cc1ccccc1)C(N)=O` [FLPLKKLRFGLL]: the MIC with Lactococcus lactis stood at 3.13 µM (≈ 4.52 µg/mL); in the test with Candida albicans, 6.25 µM (≈ 9.02 µg/mL); in the test on Bacillus cereus, 3.13 µM (≈ 4.52 µg/mL); in the test with Pseudomonas aeruginosa, 12.5 µM (≈ 18 µg/mL); in [5] it was 3.13 µM (≈ 4.52 µg/mL); with Escherichia coli AS1.349, 12.5 µM (≈ 18 µg/mL).

With `CC[C@H](C)[C@H](NC(=O)CN)C(=O)N[C@@H](Cc1ccccc1)C(=O)N[C@@H](CO)C(=O)N[C@@H](CC(C)C)C(=O)N[C@H](C(=O)N[C@@H](CCCCN)C(=O)N[C@H](C(=O)N[C@@H](C)C(=O)N[C@@H](C)C(=O)N[C@@H](CCCCN)C(=O)N[C@@H](Cc1ccccc1)C(=O)N[C@H](C(=O)NCC(=O)N[C@@H](CCCCN)C(=O)N[C@@H](CC(N)=O)C(=O)N[C@@H](CC(C)C)C(=O)N[C@@H](CC(C)C)C(=O)N[C@@H](CCCCN)C(=O)N[C@@H](CCC(N)=O)C(=O)N[C@@H](C)C(=O)NCC(=O)N[C@@H](CCCCN)C(=O)N[C@@H](C)C(=O)NCC(=O)N[C@H](C(=O)N[C@@H](CCC(=O)O)C(=O)N[C@@H](Cc1cnc[nH]1)C(=O)N[C@@H](CC(C)C)C(=O)N[C@@H](C)C(=O)N[C@H]1CSSC[C@@H](C(=O)O)NC(=O)[C@H](CCC(N)=O)NC(=O)[C@H](CC(N)=O)NC(=O)[C@H](CC(N)=O)NC(=O)[C@H](C)NC(=O)[C@H](CCCCN)NC1=O)C(C)C)C(C)C)[C@@H](C)O)[C@@H](C)CC` [GIFSLIKTAAKFVGKNLLKQAGKAGVEHLACKANNQC], the MIC in test [1] is 3.23 µM (≈ 12.5 µg/mL); in [2], 0.646 µM (≈ 2.5 µg/mL); in the test with Bacillus pumilus, 0.646 µM (≈ 2.5 µg/mL); against Bacillus cereus, 1.94 µM (≈ 7.5 µg/mL); against Pseudomonas aeruginosa, 12.9 µM (≈ 50 µg/mL); with Shigella dysenteriae, 1.94 µM (≈ 7.5 µg/mL). For the same compound, the MIC turned out to be 0.323 µM (≈ 1.25 µg/mL) in test [3] and 3.23 µM (≈ 12.5 µg/mL) in test [4].

In the case of `CC[C@H](C)[C@H](NC(=O)[C@H](CCCCN)NC(=O)[C@H](CCCCN)NC(=O)CNC(=O)[C@@H](NC(=O)CNC(=O)[C@H](CC(C)C)NC(=O)[C@@H](NC(=O)CNC(=O)[C@H](CO)NC(=O)[C@H](CC(C)C)NC(=O)[C@H](CC(C)C)NC(=O)CN)C(C)C)C(C)C)C(=O)N[C@H](C(=O)N[C@H]1CSSC[C@@H](C(=O)O)NC(=O)[C@H](CC(C)C)NC(=O)CNC(=O)[C@H](CO)NC(=O)[C@H](CC(C)C)NC(=O)CNC1=O)C(C)C` [GLLSGVLGVGKKIVCGLSGLC], the MIC is 2.63 µM (≈ 5.19 µg/mL) in test [2]; 11.5 µM (≈ 22.6 µg/mL) in test [6]; not below 64.9 µM in test [7]; 5.27 µM (≈ 10.4 µg/mL) in test [8]; 5.27 µM (≈ 10.4 µg/mL) in test [9]; 2.63 µM and 5.73 µM in test [4].

For `CC[C@H](C)[C@H](NC(=O)[C@H](CCCCN)NC(=O)[C@H](Cc1c[nH]c2ccccc12)NC(=O)[C@@H](NC(=O)[C@@H](N)CCCN=C(N)N)[C@@H](C)CC)C(=O)N[C@@H](Cc1c[nH]c2ccccc12)C(=O)N[C@@H](Cc1c[nH]c2ccccc12)C(=O)N[C@@H](CCCCN)C(=O)N[C@@H](CCCN=C(N)N)C(=O)O` [RIWKIWWKR], the MIC is not below 46.7 µM in test [10]; not below 46.7 µM in [11]; 23.3 µM (≈ 32 µg/mL) in test [12]; 5.83 µM (≈ 8 µg/mL) against Candida albicans C627; not below 93.3 µM in [13]; 93.3 µM (≈ 128 µg/mL) in [9]. Further, the MIC in test [14] is not below 93.3 µM; in test [15] it was not below 46.7 µM.

Regarding `CC[C@H](C)[C@H](NC(=O)[C@H](CCCCN)NC(=O)CNC(=O)[C@H](CC(C)C)NC(=O)[C@@H](NC(=O)[C@H](CCCCN)NC(=O)[C@H](CCCCN)NC(=O)[C@H](Cc1c[nH]c2ccccc12)NC(=O)[C@H](CC(N)=O)NC(=O)[C@@H](N)C(C)C)C(C)C)C(=O)N[C@H](C(=O)N[C@@H](CCCCN)C(=O)N[C@H](C(=O)N[C@@H](C)C(=O)N[C@@H](CCCCN)C(N)=O)C(C)C)[C@@H](C)CC` [VNWKKVLGKIIKVAK], the MIC was 29 µM (≈ 50 µg/mL) in test [16]; 29 µM (≈ 50 µg/mL) in [17]; 9.1 µM (≈ 15.7 µg/mL) in test [18]; 7.25 µM (≈ 12.5 µg/mL) in test [19]; 15.8 µM (≈ 27.2 µg/mL) with Pseudomonas aeruginosa; 29 µM (≈ 50 µg/mL) in [20]. For the same compound, the minimum inhibitory concentration (MIC) against Staphylococcus aureus was 14.3 µM (≈ 24.6 µg/mL); in [21], 7.25 µM (≈ 12.5 µg/mL); with Escherichia coli B, 1.7 µM (≈ 2.93 µg/mL); in test [22], 14.5 µM (≈ 25 µg/mL); in the test with Candida krusei CCM 8271 it was 29 µM (≈ 50 µg/mL); in test [23] it was 3.62 µM (≈ 6.25 µg/mL). In the test with Bacillus subtilis 168, the MIC was determined as 0.8 µM (≈ 1.38 µg/mL).

Turning to `CC(C)[C@H](N)C(=O)N[C@@H](Cc1c[nH]c2ccccc12)C(=O)N[C@@H](CCCN=C(N)N)C(=O)N[C@@H](CCCCN)C(=O)N[C@@H](Cc1c[nH]c2ccccc12)C(=O)N[C@@H](CCCN=C(N)N)C(=O)N[C@@H](CCCN=C(N)N)C(=O)N[C@@H](Cc1ccccc1)C(=O)N[C@@H](Cc1c[nH]c2ccccc12)C(=O)N[C@@H](CCCCN)C(=O)N[C@@H](CCCN=C(N)N)C(=O)O` [VWRKWRRFWKR], the MIC came to 6.25 µM (≈ 10.7 µg/mL) in test [24]; 6.25 µM (≈ 10.7 µg/mL) in test [25]; 3.13 µM (≈ 5.33 µg/mL) against Bacillus cereus AS1.126; 6.25 µM (≈ 10.7 µg/mL) in [5]; 6.25 µM (≈ 10.7 µg/mL) in [26]; 1.56 µM (≈ 2.66 µg/mL) in test [27]. The compound also gave an MIC in the test with Escherichia coli AS1.349 of 3.13 µM (≈ 5.33 µg/mL).

A word on the MIC: it is the lowest concentration found to suppress growth.

Source of the values: DBAASP.
